Measurements taken from patent publication US20030203969A1, “Pharmaceutically active aromatic guanylhydrazones” (priority 2000, published 2003).
pIC50: −log10 of the molar value.

What was measured:
[1] = system: Lamivudine-resistant, mutant HBV; assay: Transfected Lamivudine-resistant mutant HBV production in HepG2 cells; format: cell-based, Hepatitis B virus
Description: Human HepG2-2.2.15 cells (ATCC Cat. No. CRL-11997), chronically infected with HBV, are plated in 96-well microtiter plates in DMEM medium supplemented with fetal bovine serum. After incubation at 37° C. in a humidified, 5% CO2 environment for 16-24 hours, the monolayer of HepG2-2.2.15 cells is washed and the medium is replaced with complete medium containing various concentrations of test compound. Every three days during the experiments, the culture medium is replaced with fresh medium containing the appropriately diluted test compound. Six days following the initial administration of the test compound, the cell culture supernatant is collected and clarified by centrifugation. The cell viability is evaluated by a dye uptake procedure (Promega's Cell Titer Aqueous One Solution). Virion-associated HBV DNA present in the tissue culture supernatant is amplified employing PCR technology using primer pairs derived from the HBV strain ayw. Subsequently, the PCR-amplified HBV DNA is detected in real-time by monitoring increases in fluorescence signals that result from exonucleolytic degradation of a quenched fluorescent probe molecule following hybridization of the probe to the amplified HBV DNA (TaqMan; Perkin-Elmer).
The same type of experiments was additionally performed with a mutant, Lamivudine-resistant HBV strain, which was transfected into HepG2 cells. […]

[2] = system: macrophage-tropic HIV-1Ba-L strain; assay: Inhibition of macrophage-tropic HIV-1 Ba-L replication in de novo infected PM1 cells (p24 antigen); format: cell-based; conditions: d10
Description: HIV replication was measured either by p24 HIV Antigen Capture Assay Kit (ELISA; HIVAG-1 Monoclonal kit BIA011; Abbott) following the manufacturer's recommendation, or by using the Quantiplex HIV-1 RNA 3.0 Assay (bDNA) system (Chiron Diagnostics). The latter assay is a signal amplification nucleic acid probe assay (employing a sandwich nucleic acid hybridization procedure) for direct quantitation of HIV RNA in human plasma. There, in brief, HIV-1 is first concentrated from plasma by centrifugation. After release of genomic HIV-1 RNA from the virions, the RNA is captured to a microwell by a set of specific, synthetic oligonucleotide capture probes. A set of target probes hybridize to both the viral RNA and the pre-amplifier probes. The capture probes, comprised of 17 individual capture extenders, and the target probes, comprised of 81 individual target extenders, bind to different regions of the pol gene of the viral RNA. The amplifier probe hybridizes to the pre-amplifier forming a branched DNA (bDNA) complex. Then, multiple copies of an alkaline phosphatase labeled probe are hybridized to this immobilized bDNA complex. Detection is achieved by incubating the entire complex with a chemoluminescent substrate. Light emission is directly proportional to the amount of HIV-1 RNA present in each sample, and results are recorded as relative light units by an appropriate analyzer.
Jurkat cells (species: human T-cell leukemia; special characteristics: cells are permissive for growth of T-cell tropic HIV strains; source:ATCC Cat.No. TIB 152) or PM1 cells (species: clonal derivative of human HUT 78 cells; special characteristics: cells are permissive for growth of macrophage-tropic and T-cell tropic HIV strains; source: Dr. Marvin Reitz, courtesy of the NIH AIDS Research and Reference Reagent Program Cat.No. 3038) were stimulated with Phytohemagglutinin (PHA-P, Product No. L9132 from Sigma) in a concentration of 2 μg/ml (1.5×10^6 cells/ml) and Hexadimethrine Bromide (Polybrene, Product No. H9268 from Sigma) in a concentration of 2 μg/ml (1.5×10^6 cells/ml) in RPMI 1640 medium containing 10% fetal calf serum (FCS, Pansystems GmbH) and antibiotics for 3 days.
For HIV-1 infection, 5×10^7 cells were resuspended in 500 μl culture medium without test drugs and incubated in a 50 ml blue-cap-tube at 37° C. for 5 hrs with HIV-1 high titer viral stocks. Jurkat cells were infected with the T-cell tropic strain HIV-1 NL4-3, PM1 cells with the macrophage tropic strain HIV-1 Ba-L (both from the NIH AIDS Research and Reference Reagent Program). After infection, cells were washed twice with PBS without Ca^2+ and Mg^2+ to avoid false positive p24 antigen determination. Cells were resuspended, and identical aliquots (1×10^6/ml) of infected cells were further cultured in 10 ml medium with test drugs at various concentrations, or in medium with DMSO as control for calculation of the inhibition of virus replication (in %].
Culture medium was changed and cells were split at days 3 and 7 of the experiments. Viability of the cells (Trypan-blue staining), cell counts and p24 antigen levels were determined at days 3, 7 and 10 of the experiments. No significant differences in cell viability were observed (˜85-90% living cells).
At day 10 of infection, the HIV strains replicated vigorously in untreated cultures. Numbers describe percent inhibition of HIV replication as compared to control experiments.

[3] = system: herpes simplex virus type 1 (strain HF); assay: HSV-1 cytopathic effect (CPE) inhibition assay in Vero cells (MTS); format: cell-based
Description: (§1) A virus-induced cytopathic effects (CPE)-inhibition assay procedure using Promega's Cell Titer Aqueous One Solution (MTS, metabolic dye) is employed to evaluate compounds for antiviral activity against herpes simplex virus type 1 (strain HF) in Vero cells (African green monkey cells, ATCC Cat. No. CCL-81). Vero cells are pregrown in 96-well tissue culture plates using Dulbecco's Modified Eagle's Medium (DMEM) supplemented with 10% heat-inactivated fetal bovine serum (FBS), L-glutamine, penicillin, and streptomycin. To each of the replicate cell cultures is added 50 μl of the test drug solution and 50 μl of virus suspension. Cell controls containing medium alone, virus-infected controls containing medium and virus, drug cytotoxicity controls containing medium and each drug concentration, reagent controls containing culture medium only (no cells), and drug calorimetric controls containing drug and medium (no cells) are run simultaneously with the test samples. The plates are incubated at 37° C. in a humidified atmosphere containing 5% CO2 until maximum CPE is observed in the untreated virus control cultures (Day 5). CPE inhibition is determined by a dye (MTS) uptake procedure. […] The purple color of the MTS formazan is then measured spectrophotometrically at 490/650 nm. […]

[4] = system: Vero cells; assay: Cytotoxicity in uninfected Vero cells (HSV-1 experiments, MTS); format: cell-based, African green monkey; conditions: inhibits cell growth by 50%, read-out: TC50 (the source's name)
Description: as §1

CC(=NNC(=N)N)c1cc(NC(=O)CCCCCCCCC(=O)Nc2cc(C(C)=NNC(=N)N)cc(C(C)=NNC(=N)N)c2)cc(C(C)=NNC(=N)N)c1 [Compound 4, N,N′-bis (3,5-diacetylphenyl) decane diamide tetrakis (amidinohydrazone)]
Comments ([1]; Lamivudine-resistant mutant HBV): Active
IC50 ([1]; Lamivudine-resistant mutant HBV transfected into HepG2 cells, read-out: IC50 (μM) Virion-DNA): 2.78 µM
percent inhibition of HIV replication as compared to control ([2]; 0.5 μM): 82%
percent inhibition of HIV replication as compared to control ([2]; 1.0 μM): 73%
Comments ([3]; HSV-1, Vero cells): Active
pIC50 ([3]; HSV-infected Vero cells, reduces the CPE by 50%): 5.81
CC50 [4]: 20600 nM
